Measured values: PubChem BioAssay AID2060497 (Molecular Pharmacology Branch, DTP, NCI, 2025)

Tested on: 317291-083-R-J1-PDC complex spheroids, viability
Test: Anticancer human tumor 317291-083-R-J1-PDC patient-derived soft tissue sarcoma cell line growth inhibition [GQUAD]
Settings: for IC50: curve of first compound; for viability, T/C: stronger effect = lower value
From the text: DNA G-quadruplex Stabilizer Agents in Combinations in Complex Spheroids
A high-throughput screen of multi-cell type tumor spheroids was designed to identify active combinations of DNA G-quadruplex stabilizer agents and targeted small molecules. Complex spheroids include a stromal component modeled by human endothelial cells (HUVEC) and fibroblasts modeled by human mesenchymal stem cells (MSCs). The concentration ranges selected for each drug and investigational agent were based upon clinically achievable concentrations if the clinical Cmax of the agent was known.
Compounds. The drugs and investigational agents: pidnarulex (CX-5461; NSC782164), APTO-253 (NSC789042), BRACO-19 (NSC847499), peposertib (NSC802822), ceralasertib (NSC780249), elimusertib (NSC800525), camonsertib (NSC841442), AZD-1390 (NSC803789), olaparib (NSC753686), talazoparib (NSC767125), ART-558 (NSC835418), sotorasib (NSC818433), MRTX-1133 (NSC836407), SN-38 (NSC673596), topotecan (NSC609699), etoposide (NSC141540), doxorubicin (NSC123127), gemcitabine (NSC613327), 5-fluorouracil (NSC19893), paclitaxel (NSC125973), vemurafenib (NSC761431), panobinostat (NSC761190), R-306465 (JNJ-16241199; NSC773264), adavosertib (NSC754352), TP-3654 (NSC805149), carboplatin (NSC241240), KSQ-4279 (NSC840948), and staurosporine (NSC755774) were obtained from the National Cancer Institute (NCI) Developmental Therapeutics Program Chemical Repository (34). The FDA-approved anticancer drug set is available from the NCI Developmental Therapeutics Program. […] The stock solutions were prepared in dimethyl sulfoxide (DMSO, Sigma-Aldrich, St. Louis, MO, cat. D2650) at 800-fold the tested concentration and stored at -70 degrees C prior to their use. All drugs and investigational agents were tested over a range starting from a high concentration at or near the clinical Cmax and decreasing in half-log increments. If the clinical Cmax for an agent had not been determined, the highest concentration tested was 10 microM.
2.3 Cell Culture. All cells were maintained in an incubator at 37 degrees C and 5% CO2 with 95% humidity. The PDC lines were cultured according to standard operating procedures established by the NCI PDMR. All PDCs were thawed and cultured in Matrigel-coated flasks prepared with a working solution of 1X Ham's F-12 nutrient mix, without supplementation (Invitrogen, cat. 11765054), 100 U/mL penicillin-streptomycin (Invitrogen, cat. 15140122), and 2.5% Matrigel (Corning Inc., cat. 354248) for the first three passages. The 857933-349-R-J2-PDC line was cultured in 6C/Colon 1B media, which includes advanced DMEM/F-12 (Thermo Fisher Scientific, cat. 12634028), 10 mM HEPES (Thermo Fisher Scientific, cat. 15630080), 1X GlutaMAX supplement (Thermo Fisher Scientific, cat. 35050061), 0.1 mg/mL primocin (InvivoGen, cat. ant-pm-2), 10% defined fetal bovine serum, heat inactivated (HyClone Laboratories Inc., cat. SH30070.03HI), 50% L-WRN conditioned media (ATCC, cat. CRL-3276), 1.25 mM N-Acetyl-L-cysteine (Sigma-Aldrich, cat. A9165), 10 mM nicotinamide (Sigma-Aldrich, cat. N0636), 1X B-27 supplement (Thermo Fisher Scientific, cat. 17504044), 1X N-2 supplement (Thermo Fisher Scientific, cat. 17502048), 10 microM Y-27632 dihydrochloride (Tocris Bioscience, cat. 1254), and 50 ng/mL human EGF recombinant protein (Thermo Fisher Scientific, cat. PHG0311). The 485176-168-R4-J1-PDC line was cultured in Panc media, which includes all 6C/Colon 1B media components plus 100 ng/mL human FGF-10 (Thermo Fisher Scientific, cat. 100-26), 500 nM SB-431542 (Selleckchem, cat. S1067), and gastrin (Tocris, cat. 3006).
[…]
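Also: spheroids exposed to compounds for one week before readout.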
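For viability, T/C in this document: percent viability relative to DMSO vehicle wells taken as 100%.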

**Q.** For `C=CCn1c(=O)c2cnc(Nc3ccc(N4CCN(C)CC4)cc3)nc2n1-c1cccc(C(C)(C)O)n1` + Cc1cnc(CNC(=O)c2c(=O)c3ccc(N4CCCN(C)CC4)nc3n3c2sc2ccccc23)cn1, which IC50 (second compound 0.0316 µM) is on record?
**A.** The IC50 was 171 nM.

**Q.** And the IC50 (second compound 0.1 µM)?
**A.** The IC50 was 64.7 nM.

**Q.** And the IC50 (second compound 0.316 µM)?
**A.** The IC50 was under 31.6 nM.

**Q.** And the IC50 (second compound 1 µM)?
**A.** The IC50 was under 31.6 nM.

**Q.** And the IC50 (second compound 3.16 µM)?
**A.** The IC50 was under 31.6 nM.

**Q.** And the IC50 (second compound 10 µM)?
**A.** The IC50 was under 31.6 nM.

**Q.** What about the viability, T/C (second compound 0.0316 µM, first compound 0.0316 µM) of the same compound?
**A.** The viability, T/C was 79.7%.

**Q.** And the viability, T/C (second compound 0.0316 µM, first compound 0.1 µM)?
**A.** The viability, T/C was 65.5%.

**Q.** And the viability, T/C (second compound 0.0316 µM, first compound 0.316 µM)?
**A.** The viability, T/C was 31.2%.

**Q.** And the viability, T/C (second compound 0.0316 µM, first compound 1 µM)?
**A.** Its viability, T/C is 28.8%.

**Q.** And the viability, T/C (second compound 0.0316 µM, first compound 3.16 µM)?
**A.** The viability, T/C was 17.8%.

**Q.** What about the viability, T/C (second compound 0.0316 µM, first compound 10 µM) of the same compound?
**A.** Its viability, T/C is 17.2%.

**Q.** What about the viability, T/C (second compound 0.1 µM, first compound 0.0316 µM) of the same compound?
**A.** Its viability, T/C is 57.3%.

**Q.** And the viability, T/C (second compound 0.1 µM, first compound 0.1 µM)?
**A.** The viability, T/C was 45.4%.

**Q.** And the viability, T/C (second compound 0.1 µM, first compound 0.316 µM)?
**A.** Its viability, T/C is 30.3%.

**Q.** And the viability, T/C (second compound 0.1 µM, first compound 1 µM)?
**A.** The viability, T/C was 19.9%.

**Q.** What about the viability, T/C (second compound 0.1 µM, first compound 3.16 µM) of the same compound?
**A.** Its viability, T/C is 14.6%.

**Q.** And the viability, T/C (second compound 0.1 µM, first compound 10 µM)?
**A.** Its viability, T/C is 14.8%.

**Q.** What about the viability, T/C (second compound 0.316 µM, first compound 0.0316 µM) of the same compound?
**A.** The viability, T/C was 43.2%.

**Q.** What about the viability, T/C (second compound 0.316 µM, first compound 0.1 µM) of the same compound?
**A.** The viability, T/C was 27.5%.

**Q.** And the viability, T/C (second compound 0.316 µM, first compound 0.316 µM)?
**A.** The viability, T/C was 22.6%.

**Q.** And the viability, T/C (second compound 0.316 µM, first compound 1 µM)?
**A.** Its viability, T/C is 20.9%.

**Q.** What about the viability, T/C (second compound 0.316 µM, first compound 3.16 µM) of the same compound?
**A.** The viability, T/C was 12%.

**Q.** What about the viability, T/C (second compound 0.316 µM, first compound 10 µM) of the same compound?
**A.** Its viability, T/C is 17.6%.

**Q.** And the viability, T/C (second compound 1 µM, first compound 0.0316 µM)?
**A.** The viability, T/C was 27.7%.

**Q.** And the viability, T/C (second compound 1 µM, first compound 0.1 µM)?
**A.** Its viability, T/C is 30.3%.

**Q.** What about the viability, T/C (second compound 1 µM, first compound 0.316 µM) of the same compound?
**A.** The viability, T/C was 24.6%.

**Q.** And the viability, T/C (second compound 1 µM, first compound 1 µM)?
**A.** Its viability, T/C is 15.1%.

**Q.** What about the viability, T/C (second compound 1 µM, first compound 3.16 µM) of the same compound?
**A.** The viability, T/C was 8.69%.

**Q.** What about the viability, T/C (second compound 1 µM, first compound 10 µM) of the same compound?
**A.** Its viability, T/C is 8.16%.

**Q.** And the viability, T/C (second compound 3.16 µM, first compound 0.0316 µM)?
**A.** The viability, T/C was 15.6%.

**Q.** What about the viability, T/C (second compound 3.16 µM, first compound 0.1 µM) of the same compound?
**A.** Its viability, T/C is 13%.

**Q.** What about the viability, T/C (second compound 3.16 µM, first compound 0.316 µM) of the same compound?
**A.** The viability, T/C was 19.1%.

**Q.** And the viability, T/C (second compound 3.16 µM, first compound 1 µM)?
**A.** Its viability, T/C is 4.5%.

**Q.** What about the viability, T/C (second compound 3.16 µM, first compound 3.16 µM) of the same compound?
**A.** Its viability, T/C is 4.07%.

**Q.** What about the viability, T/C (second compound 3.16 µM, first compound 10 µM) of the same compound?
**A.** The viability, T/C was 2.45%.

**Q.** And the viability, T/C (second compound 10 µM, first compound 0.0316 µM)?
**A.** Its viability, T/C is 0.13%.

**Q.** What about the viability, T/C (second compound 10 µM, first compound 0.1 µM) of the same compound?
**A.** Its viability, T/C is 0.27%.

**Q.** What about the viability, T/C (second compound 10 µM, first compound 0.316 µM) of the same compound?
**A.** The viability, T/C was 0.18%.

**Q.** What about the viability, T/C (second compound 10 µM, first compound 1 µM) of the same compound?
**A.** Its viability, T/C is 1.89%.

**Q.** What about the viability, T/C (second compound 10 µM, first compound 3.16 µM) of the same compound?
**A.** The viability, T/C was 0.2%.

**Q.** And the viability, T/C (second compound 10 µM, first compound 10 µM)?
**A.** The viability, T/C was 0.61%.
